# Where a SMILES comes first, the peptide text is derived from it. [ ]: non-standard residue; d: D form. dPhe(4-Cl) = N[C@H](Cc1ccc(Cl)cc1)C(=O)O; d2Nal = N[C@H](Cc1ccc2ccccc2c1)C(=O)O; dCit = NC(=O)NCCC[C@@H](N)C(=O)O; d3Pal = N[C@H](Cc1cccnc1)C(=O)O
# What was measured:
# [1] = tested on: PAMH mice; experiment: Postnatal GnRH antagonist treatment in PAMH mice: estrous cyclicity, ovaries, hormone levels; assay type: in vivo, mouse
# Procedure: FIG. 6A-6G. Postnatal GnRH antagonist treatment of PAMH mice restores the PCOS-like neuroendocrine phenotype. (FIG. 6A) Schematic of experimental design whereby vaginal cytology (estrous cyclicity) in PAMH adult (P60-P90, n=5) was analyzed for 12 days before and after postnatal intraperitoneal (i.p.) injections with 0.5 mg Kg^−1 cetrorelix acetate (PAMH+GnRH antag). Injections were administered every 2 days over 12 days and, on the first diestrus at the end of the treatment, trunk blood was collected for hormonal analysis. (FIG. 6B) Representation of estrous cyclicity of a female PAMH mouse before postnatal GnRH antagonist treatment (no treatment) and during postnatal GnRH antagonist treatment (PAMH+GnRH antag). Days of treatment are denoted by arrows. (FIG. 6C) Quantitative analysis of the % of completed estrous cycles in control (prenatal PBS-treated, n=19), PAMH (prenatal AMH-treated, n=19), and PAMH mice postnatally treated with GnRH antagonist (PAMH+GnRH antag, n=5). The horizontal line in each scatter plot corresponds to the median value. The vertical line represents the 25th-75th percentile range. Comparisons between treatment groups were performed using Kruskal-Wallis test followed by Dunn's post hoc analysis test (control vs PAMH ***P<0.0001; control vs PAMH+GnRH antag, P>0.999; PAMH vs PAMH+GnRH antag, *P=0.015). (FIG. 6D) Scatter plot representing the percentage (%) of time spent in each estrous cycle. The horizontal line in each scatter plot corresponds to the median value. The vertical line represents the 25th-75th percentile range. The percentage (%) of time spent in each estrous cycle was quantified in control, PAMH and PAMH+GnRH antag animals groups, as described above. Comparisons between treatment groups were performed using Kruskal-Wallis test followed by Dunn's post hoc analysis test (M/D: control vs PAMH ***P<0.0001; control vs PAMH+GnRH antag, P>0.999; PAMH vs PAMH+GnRH antag, *P=0.0051; E: control vs PAMH ***P<0.0001; control vs PAMH+GnRH antag, P>0.999; PAMH vs PAMH+GnRH antag, *P=0.014; P: control vs PAMH ***P<0.0001; control vs PAMH+GnRH antag, P>0.999; PAMH vs PAMH+GnRH antag, **P=0.0007). In FIG. 6D, (●): control; light grey point: PAMH; “○”: PAMH+GnRH antagonist. (FIG. 6E) Representative photomicrographs of ovaries from adult (P60-P90) control, PAMH and PAMH+GnRH antag mice. Ovary sections (5 μm thick) were stained with haematoxylin-eosin. (FIG. 6F) Mean T levels were measured in diestrus adult control (n=7), PAMH (n=5) and PAMH+GnRH antag (n=5) animals. Comparisons between treatment groups were performed using One-way ANOVA and Tukey's multiple comparisons post-hoc test, F (2,14)=29.24, ***P<0.0001. (FIG. 6G) Mean LH levels were measured in diestrus adult control (n=9), PAMH (n=10) and PAMH+GnRH antag (n=5) animals. Comparisons between treatment groups were performed using One-way ANOVA and Tukey's multiple comparisons post-hoc test, F(2,21)=65.78, ***P<0.0001. Abbreviations: M/D, Metestrus/Diestrus; E, Estrus; P, Proestrus; A, atretic follicles; CL, corpora lutea; AF, antral follcicles.
# (FIG. 10A) Schematic of experimental design whereby vaginal cytology (estrous cyclicity) in PAMH adult mice (P90, n=6) was analyzed during 3 months, before and after postnatal intraperitoneal (i.p.) injections with 0.05, 0.5 and 5 mg/Kg Cetrorelix acetate. The Y axis refers to the different stages of the estrous cycle: Metaestrus/Diestrus (M/D), Estrus (E) and Proestrus (P). The X axis represents the time-course of the experiments (days). Animals were injected i.p. every second day, for 12 days, with Cetrorelix acetate at the dose of 0.05 and 0.5 mg/Kg, and every day with Cetrorelix acetate at the dose of 5 mg/Kg. Tail-blood samples were collected for LH measurements twice before the beginning of the treatments, and at day 2 and 6 of each treatment as well as 4 days after the last injection (no treatment), that followed each administration period. […]
# [2] = tested on: P0 pups; experiment: LH and T measurement in P0 mice; assay type: in vivo, mouse; conditions: prenatal GnRH antagonist administration with AMH
# Procedure: FIGS. 4A-4C-2. Prenatal AMH treatment increases perinatal T levels in females and masculinizes their brain. (FIG. 4A) Plasma T and LH levels were measured in pups 2 hours after birth (males, n=5; control females, n=5; PAMH females, n=4; PAMH females+GnRH antag, n=6). (FIG. 4B) TH immunoreactive (-ir) neurons in the AVPV were quantified in these animal groups (n=3 per sex and treatment). The number of AVPV TH-ir neurons are represented as the mean±s.e.m. (One-way ANOVA and Tukey's multiple comparisons post-hoc test, F(2,6)=231.1, ***P<0.0001). In FIG. 4B: left bar: male; middle bar: control female; right bar: PAMH female. (FIGS. 4C-1, 4C-2)
# For the analysis of circulating LH and T levels, animals were decapitated and trunk blood from adult (P60) animals and P0 pups (1-2 hrs after birth) were collected in sterile Eppendorf tubes and left on ice until centrifugation. Plasma was collected and stored at −80° C. until use. LH levels were determined by a sandwich ELISA, as described previously (Vidal et al., 2012, PloS one, Vol. 7: e39001), using the mouse LH-RP reference provided by A. F. Parlow (National Hormone and Pituitary Program, Torrance, CA). Plasma T levels were analyzed using a commercial ELISA (Demeditec Diagnostics, GmnH, DEV9911) (Moore et al., 2015, Proc Natl Acad Sci USA, Vol. 112: 596-601) according to the manufacturers' instructions. […]
# [3] = 0.5 mg/Kg i.p. every second day for 12 days
compound,measurement,setting,value
"CC(=O)N[C@H](Cc1ccc2ccccc2c1)C(=O)N[C@H](Cc1ccc(Cl)cc1)C(=O)N[C@H](Cc1cccnc1)C(=O)N[C@@H](CO)C(=O)N[C@@H](Cc1ccc(O)cc1)C(=O)N[C@H](CCCNC(N)=O)C(=O)N[C@@H](CC(C)C)C(=O)N[C@@H](CCCNC(=N)N)C(=O)N1CCC[C@H]1C(=O)N[C@H](C)C(N)=O [Cetrorelix acetate, Ac-D-2Nal-D-Phe(4-Cl)-D-3Pal-Ser-Tyr-D-Cit-Leu-Arg-Pro-D-Ala-NH2] (Ac-[d2Nal][dPhe(4-Cl)][d3Pal]SY[dCit]LRP[dA]-NH2)",serum LH levels of PAMH mice,[1]; 0.05 mg/Kg i.p. every second day,significantly more elevated than in Control animals
same,LH pulsatility in PAMH animals,"[1]; 0.5 mg/Kg every second day, diestrus, end of treatment",normalized the LH pulsatility
same,LH levels of PAMH mice,[1]; [3],normalized
same,estrous cyclicity of PAMH mice,[1]; [3],restored
same,T levels of PAMH mice,"[1]; 0.5 mg/Kg i.p. every second day for 12 days, diestrus",normalized
same,ovarian morphology of PAMH mice,[1]; 0.5 mg/Kg i.p. every two days for 12 days,restored
same,ovulation in PAMH animals,[1]; 0.5 mg/Kg injected every 48 hours,restored ovulation
same,serum LH levels of PAMH mice,[1]; 5 mg/Kg i.p. daily,significantly suppressed
same,reversibility of effects on LH secretion,"[1]; after discontinuation of treatment, independently of dose",reversible a few days after discontinuation of treatment
same,neonatal T and LH surges of PAMH female pups,[2],corrected
